Data from PubChem BioAssay (NCI).
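Values below derive from 48-hour exposures of cells grown in 96-well plates, with endpoints linearly interpolated between the two concentrations bracketing the appropriate inhibition level. The concentration for full growth arrest is given as TGI.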

Experiments:
Assay in all cases: NCI tumour cell line growth inhibition, 48 h
[1] = test system: SK-MEL-2 melanoma
[2] = test system: SF-539 CNS
[3] = test system: M19-MEL melanoma
[4] = test system: KM20L2 colon
[5] = test system: SK-MEL-5 melanoma
[6] = test system: HOP-92 NSCLC
[7] = test system: UACC-62 melanoma
[8] = test system: OVCAR-4 ovarian
[9] = test system: COLO 205 colon
[10] = test system: CAKI-1 renal
[11] = test system: HOP-18 NSCLC
[12] = test system: RPMI-8226 leukemia
[13] = test system: OVCAR-3 ovarian
[14] = test system: TK-10 renal
[15] = test system: ACHN renal
[16] = test system: SK-MEL-28 melanoma
[17] = test system: U251 CNS
[18] = test system: LXFL 529 NSCLC
[19] = test system: NCI-H226 lung
[20] = test system: HCT-15 colon
[21] = test system: SK-OV-3 ovarian
[22] = test system: HCC-2998 colon
[23] = test system: HCT-116 colon
[24] = test system: SNB-78 CNS
[25] = test system: SR leukemia
[26] = test system: OVCAR-5 ovarian
[27] = test system: SF-268 CNS
[28] = test system: RXF 393 renal
[29] = test system: SN12C renal
[30] = test system: A549 NSCLC
[31] = test system: CCRF-CEM leukemia
[32] = test system: EKVX NSCLC
[33] = test system: MOLT-4 leukemia
[34] = test system: OVCAR-8 ovarian
[35] = test system: SNB-19 CNS
[36] = test system: UO-31 renal
[37] = test system: NCI-H23 lung
[38] = test system: KM12 colon
[39] = test system: SF-295 CNS
[40] = test system: MALME-3M melanoma
[41] = test system: IGROV1 ovarian
[42] = test system: DMS 273 small cell lung
[43] = test system: HOP-62 NSCLC
[44] = test system: NCI-H522 lung
[45] = test system: DMS 114 small cell lung
[46] = test system: SW-620 colon
[47] = test system: DLD-1 colon
[48] = test system: LOX IMVI melanoma
[49] = test system: K-562 leukemia
[50] = test system: XF 498 CNS
[51] = test system: UACC-257 melanoma
[52] = test system: HT29 colon
[53] = test system: SNB-75 CNS
[54] = test system: 786-0 renal
[55] = test system: M14 melanoma
[56] = test system: NCI-H460 lung
[57] = test system: HL-60(TB) leukemia

## N#CCCN(CCC#N)c1ccc(/C=C2\N=C(c3cc([N+](=O)[O-])ccc3Cl)N(S(=O)(=O)c3ccccc3)C2=O)cc1
[1]
  TGI: > 100 µM
[2]
  TGI: > 100 µM
[3]
  TGI: > 100 µM
[4]
  TGI: > 100 µM
[5]
  TGI: > 100 µM
[6]
  TGI: > 100 µM
[7]
  TGI: > 100 µM
[8]
  TGI: > 100 µM
[9]
  TGI: > 100 µM
[10]
  TGI: > 100 µM
[11]
  TGI: > 100 µM
[12]
  TGI: > 100 µM
[13]
  TGI: > 100 µM
[14]
  TGI: > 100 µM
[15]
  TGI: > 100 µM
[16]
  TGI: > 100 µM
[17]
  TGI: > 100 µM
[18]
  TGI: > 100 µM
[19]
  TGI: > 100 µM
[20]
  TGI: > 100 µM
[21]
  TGI: > 100 µM
[22]
  TGI: > 100 µM
[23]
  TGI: > 100 µM
[24]
  TGI: > 100 µM
[25]
  TGI: > 100 µM
[26]
  TGI: > 100 µM
[27]
  TGI: > 100 µM
[28]
  TGI: > 100 µM
[29]
  TGI: > 100 µM
[30]
  TGI: > 100 µM
[31]
  TGI: > 100 µM
[32]
  TGI: > 100 µM
[33]
  TGI: > 100 µM
[34]
  TGI: > 100 µM
[35]
  TGI: > 100 µM
[36]
  TGI: > 100 µM
[37]
  TGI: > 100 µM
[38]
  TGI: > 100 µM
[39]
  TGI: > 100 µM
[40]
  TGI: > 100 µM
[41]
  TGI: > 100 µM
[42]
  TGI: > 100 µM
[43]
  TGI: > 100 µM
[44]
  TGI: > 100 µM
[45]
  TGI: > 100 µM
[46]
  TGI: > 100 µM
[47]
  TGI: > 100 µM
[48]
  TGI: > 100 µM
[49]
  TGI: > 100 µM
[50]
  TGI: > 100 µM

## Cc1cc(C)c(-n2c(-c3ccccc3)cs/c2=N\N=C2C=C(C(C)(C)C)C(=O)C(C(C)(C)C)=C2)c(C)c1
[1]
  TGI: > 100 µM
[2]
  TGI: > 100 µM
[3]
  TGI: > 100 µM
[51]
  TGI: > 100 µM
[52]
  TGI: > 100 µM
[4]
  TGI: > 100 µM
[5]
  TGI: > 100 µM
[53]
  TGI: 94.6 µM
[6]
  TGI: > 100 µM
[7]
  TGI: > 100 µM
[8]
  TGI: > 100 µM
[9]
  TGI: > 100 µM
[10]
  TGI: > 100 µM
[11]
  TGI: > 100 µM
[12]
  TGI: > 100 µM
[13]
  TGI: > 100 µM
[14]
  TGI: > 100 µM
[15]
  TGI: > 100 µM
[16]
  TGI: > 100 µM
[17]
  TGI: > 100 µM
[54]
  TGI: > 100 µM
[18]
  TGI: > 100 µM
[19]
  TGI: > 100 µM
[55]
  TGI: > 100 µM
[56]
  TGI: > 100 µM
[20]
  TGI: > 100 µM
[57]
  TGI: > 100 µM
[21]
  TGI: > 100 µM
[22]
  TGI: > 100 µM
[23]
  TGI: > 100 µM
[24]
  TGI: > 100 µM
[25]
  TGI: > 100 µM
[26]
  TGI: > 100 µM
[27]
  TGI: > 100 µM
[28]
  TGI: > 100 µM
[29]
  TGI: > 100 µM
[30]
  TGI: > 100 µM
[31]
  TGI: > 100 µM
[32]
  TGI: > 100 µM
[33]
  TGI: > 100 µM
[34]
  TGI: > 100 µM
[35]
  TGI: > 100 µM
[37]
  TGI: > 100 µM
[38]
  TGI: > 100 µM
[39]
  TGI: > 100 µM
[40]
  TGI: > 100 µM
[41]
  TGI: > 100 µM
[42]
  TGI: > 100 µM
[43]
  TGI: > 100 µM
[44]
  TGI: > 100 µM
[45]
  TGI: > 100 µM
[46]
  TGI: > 100 µM
[47]
  TGI: > 100 µM
[48]
  TGI: > 100 µM
[49]
  TGI: > 100 µM
[50]
  TGI: > 100 µM
